Tested on: tumor cells
Assay: Tumor inhibition in mice subcutaneously inoculated with tumor cells
Assay type: in vivo
Conditions: 10 mg/kg once daily for 15 days; tumor weight vs saline group
Protocol: A total of 140 mice (equal number of males and females), approximately 3 months old, with a weight range of 15.41-18.47 g, were selected. Mice were subcutaneously inoculated with tumor cells, and their blood samples were drawn 24 hours later to test tumor markers and confirm the success of the mouse model establishment. A total of 126 mice confirmed with cancer (equal number of males and females) were selected and randomly divided into 6 groups, with 21 mice in each group (roughly equal number of males and females). These 6 groups were designated as Experimental Group 1, Experimental Group 2, Experimental Group 3, Experimental Group 4, Experimental Group 5, and Experimental Group 6. […] Tumor inhibition rate was calculated as follows: Tumor Inhibition Rate=(Average Tumor Weight in Control Group−Average Tumor Weight in Experimental Group)/Average Tumor Weight in Control Group.

SMILES	Tumor Inhibition Rate [%]
CC(C)=CCC/C(C)=C/CC/C(C)=C/CC/C(C)=C/CC/C(C)=C/CC/C(C)=C/CC/C(C)=C/CC1=C(C)C(=O)c2ccccc2C1=O [MK-7, vitamin K2 (MK-7)]	35.67
CCCc1nn(C)c2c(=O)[nH]c(-c3cc(S(=O)(=O)N4CCN(C)CC4)ccc3OCC)nc12 [sildenafil]	40.55
